Activity and IC50 data for three compounds are collected here from ChEMBL document CHEMBL4196193, “Calothrixamides A and B from the Cultured Cyanobacterium Calothrix sp. UIC 10520” (J Nat Prod, 2018).

What all share (type): functional, cell-based
Assay [1] relates to MDA-MB-435. Put plainly: Cytotoxicity against human MDA-MB-435 cells at 10 uM after 72 hrs by CellTiter 96 AQueous One Solution Cell Proliferation Assay.
Assay [2] deals with MDA-MB-231. Put plainly: Cytotoxicity against human MDA-MB-231 cells at 10 uM after 72 hrs by CellTiter 96 AQueous One Solution Cell Proliferation Assay.
Assay [3] has as its system OVCAR-3. Put plainly: Cytotoxicity against human OVCAR3 cells at 10 uM after 72 hrs by CellTiter 96 AQueous One Solution Cell Proliferation Assay.
The subject of assay [4] is MDA-MB-435. Description: Cytotoxicity against human MDA-MB-435 cells after 72 hrs by CellTiter 96 AQueous One Solution Cell Proliferation Assay. Conditions: MDA-MB-435, 72 h.
The test system of assay [5] is MDA-MB-231. Put plainly: Cytotoxicity against human MDA-MB-231 cells after 72 hrs by CellTiter 96 AQueous One Solution Cell Proliferation Assay. The conditions noted are these: MDA-MB-231, 72 h.
Assay [6] concerns OVCAR-3. Description: Cytotoxicity against human OVCAR3 cells after 72 hrs by CellTiter 96 AQueous One Solution Cell Proliferation Assay. The conditions noted are these: OVCAR-3, 72 h.

Each structure is given as a SMILES string. Activity calls are given as the source filed them. The rule behind the calls is not given here.

As to `C=CCCCC[C@H](C)[C@@H](CCCCCCCCC(C)/C=C\C=C(/C)C(=O)N[C@@H](C)CO)OC(N)=O` (some centres undefined), the outcome with MDA-MB-435 [1], in the assay with MDA-MB-231 [2] and in the assay with OVCAR-3 [3] was inactive.

With `CCCCCC[C@H](C)[C@@H](CCCCCCCCC(C)/C=C\C=C(/C)C(=O)N[C@@H](C)CO)OC(N)=O` (some centres undefined), the outcome in the assay on MDA-MB-435 [1], in the assay with MDA-MB-231 [2] and in the assay with OVCAR-3 [3] was inactive.

A word on the IC50: it is the concentration needed to halve the response being measured. Low values mean greater potency, high ones weaker potency. On to `CC(=O)O[C@H]1C(=O)[C@@]2(C)[C@H]([C@H](OC(=O)c3ccccc3)[C@]3(O)C[C@H](OC(=O)[C@H](O)[C@@H](NC(=O)c4ccccc4)c4ccccc4)C(C)=C1C3(C)C)[C@]1(OC(C)=O)CO[C@@H]1C[C@@H]2O` [PACLITAXEL], for which the figures for the IC50 in the assay on MDA-MB-435 [4], with MDA-MB-231 [5] and in the assay on OVCAR-3 [6] were 3.1 nM, 2.6 nM and 7.5 nM, respectively.
